Drawing on ChEMBL document CHEMBL4342423, “An isoform-selective inhibitor of tropomyosin receptor kinase A behaves as molecular glue” (Bioorg Med Chem Lett, 2020), this text covers IC50 and Activity for two molecules.

Data set [1] deals with T1, BDNF/NT-3 growth factors receptor (Homo sapiens, UniProt Q16620). Briefly: Inhibition of wild type human N-terminal GST-fusion tagged TRKB kinase domain (456 to 822 residues) expressed in baculovirus expression system by HTRF assay. On the technique in general: Time-resolved FRET reads energy transfer from a long-lived donor to a nearby acceptor.
T1 sequence (Q16620 whole entry, the tested form may be a part): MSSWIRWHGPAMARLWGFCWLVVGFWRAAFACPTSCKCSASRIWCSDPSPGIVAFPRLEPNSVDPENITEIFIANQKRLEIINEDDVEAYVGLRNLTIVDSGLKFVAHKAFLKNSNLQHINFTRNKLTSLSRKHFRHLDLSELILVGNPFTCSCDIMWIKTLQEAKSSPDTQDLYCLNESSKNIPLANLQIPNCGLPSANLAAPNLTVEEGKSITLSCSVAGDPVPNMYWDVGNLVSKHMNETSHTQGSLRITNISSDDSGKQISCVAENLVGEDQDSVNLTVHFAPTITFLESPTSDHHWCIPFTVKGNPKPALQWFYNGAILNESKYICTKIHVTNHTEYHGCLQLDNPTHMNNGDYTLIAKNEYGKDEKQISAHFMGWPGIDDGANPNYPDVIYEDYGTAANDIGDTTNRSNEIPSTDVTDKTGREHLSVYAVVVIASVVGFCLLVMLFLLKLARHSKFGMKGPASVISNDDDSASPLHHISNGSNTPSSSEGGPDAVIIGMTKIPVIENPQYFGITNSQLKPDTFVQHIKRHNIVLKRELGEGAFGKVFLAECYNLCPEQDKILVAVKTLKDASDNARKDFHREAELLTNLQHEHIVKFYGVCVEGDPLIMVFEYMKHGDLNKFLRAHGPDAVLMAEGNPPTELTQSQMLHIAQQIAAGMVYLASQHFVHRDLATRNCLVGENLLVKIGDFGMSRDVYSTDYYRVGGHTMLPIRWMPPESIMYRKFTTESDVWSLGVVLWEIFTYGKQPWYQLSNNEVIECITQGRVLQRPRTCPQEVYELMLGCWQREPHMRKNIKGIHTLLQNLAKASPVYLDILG
Data set [2] addresses T1, BDNF/NT-3 growth factors receptor. The experiment in a line: Binding affinity to TRKB (unknown origin) assessed as dimerization by size exclusion chromatography.

In turn, `Nc1c(N2CCN(C3CCCCC3)CC2)cc(Nc2ccc(C(=O)O)cc2)c2c1C(=O)c1ccccc1C2=O` returned a half-inhibitory concentration (IC50) in data set [1] of 94 µM. The Activity result in data set [2] is given as “Not Active”.
`CC(C)Oc1cc(Nc2nc(N[C@@H](C)c3ccc(F)cn3)ncc2Cl)n[nH]1` had a 50% inhibitory concentration (IC50) in data set [1] of 0.00093 µM.

One may read the IC50 as the concentration that inhibits the measured activity by half. A higher IC50 goes with weaker potency.
